# Assays:
# Format in all cases: cell-based
# Details in all cases: ratio of EC50 to that of NECA, CHO cells transfected with human receptor, SPAP readout
# [1] = biological target: T1, human adenosine 1 receptor (Homo sapiens, UniProt P30542); experiment: Agonist activity at adenosine 1 receptor, CHO cells with CRE-SPAP reporter (forskolin-enhanced cAMP)
# T1 sequence (P30542 1-326): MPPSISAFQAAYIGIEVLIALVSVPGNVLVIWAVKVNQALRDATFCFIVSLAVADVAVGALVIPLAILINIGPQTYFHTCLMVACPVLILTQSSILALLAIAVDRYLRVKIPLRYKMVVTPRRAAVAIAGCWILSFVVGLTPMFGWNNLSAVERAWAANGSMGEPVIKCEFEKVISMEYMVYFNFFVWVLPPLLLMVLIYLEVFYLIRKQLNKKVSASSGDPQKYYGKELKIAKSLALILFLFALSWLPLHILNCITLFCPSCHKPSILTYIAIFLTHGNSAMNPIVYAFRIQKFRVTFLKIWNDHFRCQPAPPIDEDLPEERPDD
# Procedure: (§1) (1) Agonist activity against adenosine 2a, adenosine 1 and adenosine 3 receptor subtypes.
# (§2) Agonist selectivity of compounds against other human adenosine receptors was determined using Chinese hamster ovary (CHO) cells transfected with the gene for the relevant human adenosine receptor following a method based on that of Castanon and Spevak, 1994. The CHO cells were also transfected with cyclic AMP response elements promoting the gene for secreted placental alkaline phosphatase (SPAP) (Wood, 1995). The effect of test compounds was determined by their effects on basal levels of cAMP (A2a) or on forskolin-enhanced cAMP (A1 and A3) as reflected by changes in levels of SPAP. EC50 values for compounds were then determined as a ratio to that of the non-selective agonist N-ethyl carboxamide adenosine (NECA).
# [2] = biological target: human adenosine 2a receptor (Homo sapiens, UniProt P29274); experiment: Agonist activity at adenosine 2a receptor, CHO cells with CRE-SPAP reporter (basal cAMP)
# Procedure: as §1, §2
# [3] = biological target: T2, human adenosine 3 receptor (Homo sapiens, UniProt P0DMS8); experiment: Agonist activity at adenosine 3 receptor, CHO cells with CRE-SPAP reporter (forskolin-enhanced cAMP)
# T2 sequence (P0DMS8 1-318): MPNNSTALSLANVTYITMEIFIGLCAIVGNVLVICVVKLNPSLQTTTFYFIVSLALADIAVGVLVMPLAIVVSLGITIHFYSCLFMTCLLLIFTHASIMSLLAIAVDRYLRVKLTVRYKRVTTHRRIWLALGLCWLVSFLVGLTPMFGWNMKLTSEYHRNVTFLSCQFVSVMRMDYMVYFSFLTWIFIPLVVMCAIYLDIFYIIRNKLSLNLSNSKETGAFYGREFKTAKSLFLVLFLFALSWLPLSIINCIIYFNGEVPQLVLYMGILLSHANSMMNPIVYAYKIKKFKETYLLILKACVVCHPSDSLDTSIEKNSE
# Procedure: as §1, §2
# Sequence of human adenosine 2a receptor (P29274 whole entry): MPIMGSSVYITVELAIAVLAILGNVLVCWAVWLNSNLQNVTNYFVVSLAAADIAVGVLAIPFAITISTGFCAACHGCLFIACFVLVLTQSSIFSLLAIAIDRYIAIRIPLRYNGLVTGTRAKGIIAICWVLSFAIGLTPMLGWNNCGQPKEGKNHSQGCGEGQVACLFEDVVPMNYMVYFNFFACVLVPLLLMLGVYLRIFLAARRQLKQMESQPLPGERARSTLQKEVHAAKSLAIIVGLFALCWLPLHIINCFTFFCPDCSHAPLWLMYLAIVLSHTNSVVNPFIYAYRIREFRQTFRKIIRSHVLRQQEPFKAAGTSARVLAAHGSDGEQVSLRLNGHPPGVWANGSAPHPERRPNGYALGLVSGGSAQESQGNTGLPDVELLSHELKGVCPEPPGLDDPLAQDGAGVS
Compound,"A1, EC50 values as a ratio of that of NECA [1]","A2a, EC50 values as a ratio of that of NECA [2]","A3, EC50 values as a ratio of that of NECA [3]"
"N[C@H]1CC[C@H](Nc2nc(NCC(c3ccccc3)c3ccccc3)c3ncn([C@@H]4O[C@H](Cn5nccn5)[C@@H](O)[C@H]4O)c3n2)CC1.O=CO [Example 1, (2R,3R,4S, 5R)-2-[2-(trans-4-Amino-cyclohexylamino)6-(2,2-diphenyl-ethylamino)-purin-9-yl]-5-[1,2,3]triazol-2-ylmethyl-tetrahydro-furan-3,4-diol formate]",>=3969,17.1,>656
"OC1C(Cn2cncn2)OC(n2cnc3c(NCC(c4ccccc4)c4ccccc4)nc(NC4CCNC4)nc32)C1O [Example 2, (2R,3R,4S,5R)-2-[6-(2,2-Diphenyl-ethylamino)-2-(pyrrolidin-3R-ylamino)-purin-9-yl]-5-[1,2,4]triazol-1-ylmethyl-tetrahydro-furan-3,4-diol diformate]",>8479,14.4,>152
"Cn1cnc(CCNc2nc(NCC(c3ccccc3)c3ccccc3)c3ncn(C4OC(Cn5nccn5)C(O)C4O)c3n2)c1 [Example 3, (2R,3R,4S,5R)-2-{6-(2,2-Diphenyl-ethylamino)-2-[2-(1-methyl-1-H-imidazol-4-yl)-ethylamino]-purin-9-yl}-5-[1,2,3]triazol-2-ylmethyl-tetrahydro-furan-3,4-diol diformate]",3038.8,1.31,>147
"O=CO.O[C@@H]1[C@H](O)[C@@H](Cn2nccn2)O[C@H]1n1cnc2c(NCC(c3ccccc3)c3ccccc3)nc(NCCN3CCOCC3)nc21 [Example 4, (2R,3R,4S,5R)-2-[6-(2,2-Diphenyl-ethylamino)-2-(2-morpholin-4-yl-ethylamino)-purin-9-yl]-5-[1,2,3]triazol-2-ylmethyl-tetrahydro-furan-3,4-diol formate]",1014,16.9,>174

# Results, then the molecule that gave them:
"A1, EC50 values as a ratio of that of NECA [1]","A2a, EC50 values as a ratio of that of NECA [2]","A3, EC50 values as a ratio of that of NECA [3]",Compound
8479,13.46,>270,"Cn1cnc(CCNc2nc(NCC(c3ccccc3)c3ccccc3)c3ncn([C@@H]4O[C@H](CN5C(=O)CNC5=O)[C@@H](O)[C@H]4O)c3n2)c1.O=CO.O=CO [Example 5, 3-(5R-{6-(2,2-Diphenyl-ethylamino)-2-[2-(1-methyl-1-H-imidazol-4-yl)-ethylamino]-purin-9-yl}3S,4R-dihydroxy-tetrahydro-furan-2R-ylmethyl)-imidazolidine-2,4-dione diformate]"
>=3397,23.7,>274,"OC1CCCC1Nc1nc(NCC(c2ccccc2)c2ccccc2)c2ncn(C3OC(Cn4cncn4)C(O)C3O)c2n1 [Example 6, (2R,3R,4S,5R)-2-[6-(2,2-Diphenyl-ethylamino)-2-(2R-hydroxy-cyclopent-(R)-ylamino)-purin-9-yl]-5-[1,2,4]triazol-1-ylmethyl-tetrahydro-furan-3,4-diol format]"

# Source: US6534486B1, “2-(purin-9-yl)-Tetrahydrofuran-3,4-diol derivatives” (SmithKline Beecham Corporation, priority 1998, dated 2003)
